Assay results from article PMC7274078, “Brain Endothelial Cells Regulate Glucagon-Like Peptide 1 Entry Into the Brain via a Receptor-Mediated Process” (Frontiers in Physiology, 2020).

Legend:
[1] = test system: Rat brain microvascular endothelial cells (RBMECs); assay: Endothelial cell uptake of GLP-1-FAM; type: cell-based
Method: Rat brain microvascular endothelial cells (RBMECs; Cell Applications, San Diego, CA, United States) were cultured on a cover slip in rat brain endothelial cell growth medium. After reaching confluency, cells were pre-treated with vehicle (PSS buffer), exendin 9-39 (10 nM) or H89 (Sigma-Aldrich, St. Louis, MO, United States) (10 μM) for 30 min or forskolin (Sigma-Aldrich, St. Louis, MO, United States) (10 μM) for 5 min. Cells were then incubated with GLP-1-FAM at either 10, 100 or 1,000 pM for 3 min at 37°C. DAPI was used to stain the nucleus. After fixation and washing three times with cold TBST (5 min each time), cell images were captured using confocal microscope and fluorescence intensity measured using ImageJ software^1. FAM signal from surface binding of FAM was examined by incubating cells with GLP-1-FAM at 4 or 37°C for 3 min, or free FAM (10, 100, and 1,000 pM) at 37°C for 3 min.
FIGURE 5 GLP-1 uptake by RBMECs is GLP-1 receptor and PKA dependent. RBMECs were pretreated with vehicle (PSS buffer, A,E,I), Exendin 9-39 (10 nM, B,F,J) or H89 (10 μM, C,G,K) for 30 min. Cells were then incubated with GLP-1-FAM at 10, 100 pM or 1 nM for 3 min. DAPI was used to stain the nucleus. Images were captured using confocal microscope. Fluorescence density was analyzed using ImageJ. (D,H,L) Quantitative analysis (n = 3, *p < 0.01, vs. vehicle, Student’s t test). GLP-1R – GLP-1 receptor.
FIGURE 6 cAMP agonist increases GLP-1 uptake by RBMECs. (A) RBMECs were incubated with GLP-1-FAM at 10 pM for 3 min with or without 10 μM forskolin. DAPI was used to stain the nucleus. Images was captured using confocal microscope. Fluorescence density was analyzed using ImageJ. (B) quantitative analysis of the images (n = 6, *p < 0.05, vs. vehicle, Student’s t test).

[2] = test system: RBMEC and astrocyte barrier; assay: Trans-endothelial GLP-1 transport (Transwell artificial BBB); type: in vitro ADME, rat; settings: exendin-(9-39) 100 nM, 10 min pre-treatment and during transport; GLP-1-FAM 100 pM; n = 7, p < 0.01
Method: The trans-endothelial GLP-1 transport was examined using a Transwell system that mimics the BBB in that RBMECs were co-cultured with astrocytes as illustrated in Figure 7A and previously described ([Gaillard et al., 2001]). Briefly, astrocytes (Thermo Fisher Scientific, Waltham, MA, United States) were seeded on the bottom and RBMECs were then seeded onto the top of the Transwell insert (6.5 mm diameter, 1 μm pore size, polyester membrane; Corning, Corning, NY, United States). Trans-endothelial electrical resistance was monitored using a volt-ohmmeter (EVOM; WPI, Sarasota, FL, United States) and EndOhm chamber (EndOhm; WPI). When the trans-endothelial electrical resistance reached its peak, the insert with double cell layers was washed twice at 37°C with PBS buffer. […] The amount of GLP-1-FAM or inulin-FITC transported to the lower chamber was determined by measuring FAM and FITC fluorescence in the lower chamber at 5, 10, and 30 min. Inulin-FITC transport was used to correct for paracellular transport and the amount of trans-endothelial transport of GLP-1-FAM was calculated using the formula:
Transcellular transport (%)=Fluorescence [FAM]/Reference [FAM]×100−Fluorescence [FITC]/Reference [FITC]×100
Reference refers to fluorescence in the lower chamber at the specified time point when the Transwell inserts had no cells seeded. To determine if this trans-endothelial transport is dose-dependent, 10, 100, and 1,000 pM GLP-1-FAM or inulin-FITC (with DDP-4 inhibitor) was loaded into the upper chamber, the amount of GLP-1-FAM or inulin-FITC in the lower chamber was determined at 10 min, and trans-endothelial transport of GLP-1 was calculated.
FIGURE 7 Trans-endothelial transport of GLP-1 is a GLP-1 receptor-mediated process. […] GLP-1-FAM or inulin-FITC transport to the lower chamber was determined by measuring FAM and FITC fluorescence in the lower chamber. […]

GLP-1 receptor = target: T1, GLP-1 receptor (Rattus norvegicus, UniProt P32301); assay: Effect of GLP-1 receptor antagonist infusion on brain uptake of labeled GLP-1 or exendin-4; type: in vivo; settings: exendin-(9-39) 30 nmol/kg/min for 20 min
T1 construct: from tissue; host or cells: live rat; brain regions (cerebellum, cortex, hippocampus, hypothalamus, brain stem) and brain microvasculature
T1 sequence (P32301 22-463): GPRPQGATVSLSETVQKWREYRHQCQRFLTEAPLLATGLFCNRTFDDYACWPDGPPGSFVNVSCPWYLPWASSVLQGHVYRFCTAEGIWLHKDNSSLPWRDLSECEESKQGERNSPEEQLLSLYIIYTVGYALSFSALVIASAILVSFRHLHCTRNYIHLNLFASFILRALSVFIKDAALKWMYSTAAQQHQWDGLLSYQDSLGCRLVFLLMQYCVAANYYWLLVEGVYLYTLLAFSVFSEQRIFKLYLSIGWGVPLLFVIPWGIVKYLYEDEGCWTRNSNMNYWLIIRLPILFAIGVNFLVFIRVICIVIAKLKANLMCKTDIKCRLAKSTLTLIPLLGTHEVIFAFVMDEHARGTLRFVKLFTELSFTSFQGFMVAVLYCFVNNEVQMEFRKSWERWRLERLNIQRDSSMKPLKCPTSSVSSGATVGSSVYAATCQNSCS
Method: Rats received a systemic infusion of either saline or exendin-(9-39) (GLP-1 receptor antagonist, 30 nmol/kg/min, Abcam, Cambridge, United Kingdom) via the jugular vein catheter for 20 min (Figure 1A). In the last 10 min, rats also received 30 pmol/kg/min of either GLP-1-FAM (AnaSpec, Fremont, CA, United States) or exendin-4-FAM (AnaSpec, Fremont, CA, United States) together with Dextran-TRITC (Sigma-Aldrich, St. Louis, MO, United States) (70 kD, vascular space marker, 30 pmol/kg/min). […] After collecting plasma samples, rats were sacrificed via anesthetic overdose and various brain regions (cerebellum, cortex, hippocampus, hypothalamus, and brain stem) collected, homogenized and lysed in lysis buffer. Fluorescence from TRITC and FAM were measured in both plasma and brain lysates. Protein concentrations were determined in the brain lysates. Brain uptake of GLP-1-FAM and exendin-4-FAM were calculated using the following formula:
Tissue fluorescence [FAM]/Tissue weight (μg)−TissueFluorescence [TRITC]/Weight(μg)/PlasmaFluorescence [TRITC]/200(μL)×Plasma Fluorescence [FAM]/200μL
FIGURE 1 GLP-1 and GLP-1 analog exendin-4 enter various brain regions via GLP-1 receptor-mediated process. (A) Protocol. […]

[3] = pre-treatment 30 min with exendin 9-39 10 nM or H89 10 μM, GLP-1-FAM 10, 100 or 1,000 pM for 3 min at 37°C, n = 3, p < 0.01 vs vehicle

effect on amount of GLP-1-FAM fluorescence in various brain regions (GLP-1 receptor; GLP-1-FAM 30 pmol/kg/min in last 10 min, n = 7, p < 0.05) | effect on exendin-4-FAM fluorescence in various brain regions (GLP-1 receptor; exendin-4-FAM 30 pmol/kg/min in last 10 min, n = 6, p < 0.05) | Molecule | effect on RBMEC uptake of GLP-1-FAM ([1]; forskolin 10 μM, 5 min, GLP-1-FAM 10 pM for 3 min, n = 6, p < 0.05 vs vehicle) | effect on RBMEC uptake of GLP-1-FAM [1, 3] | effect on trans-endothelial transport of labeled GLP-1 [2]
 |  | C=C[C@@]1(C)CC(=O)[C@]2(O)[C@@]3(C)[C@@H](O)CCC(C)(C)[C@@H]3[C@H](O)[C@H](OC(C)=O)[C@@]2(C)O1 [forskolin] | significantly enhanced |  | 
 |  | O=S(=O)(NCCNC/C=C/c1ccc(Br)cc1)c1cccc2cnccc12 [H89] |  | blunted | 
markedly decreased | almost completely abolished | exendin-(9-39) |  | blunted | inhibited
